One data set is described as follows: physchem. Particulars: organic solvent or mixture.
The conditions of data set [1]: 500 mg/ml; for colour of solution upon storage: all temperature conditions.
Method: Since these solvents provided more than adequate solubility, the stability of the solutions containing cyclophosphamide at a concentration of 500 mg/ml was examined.

Where two headings read alike, the source gives them in different places.

From the text for physchem: In this example, studies were initiated to determine the solubility of cyclophosphamide monohydrate in pharmaceutically acceptable solvents such as propylene glycol, polyethylene glycol and ethanol.

On to `O.O=P1(N(CCCl)CCCl)NCCCO1` (stereo not shown) [cyclophosphamide monohydrate, 2-[bis(2-chloroethyl)amino]-tetrahydro-2H-1,3,2-oxazaphosphorine-2-oxide monohydrate], for which the solubility in the data set “physchem” (ethanol), in the data set “physchem” (polyethylene glycol) and in the data set “physchem” (propylene glycol) was more than 500 mg/mL each time. For the same molecule, the degradation result in data set [1] (PEG 400 as sole solvent) and in data set [1] (PG as sole solvent) was “Significant degradation” throughout. Also, the “colour of solution upon storage” value in data set [1] (PEG 400 as sole solvent) and in data set [1] (PG as sole solvent) was “turning visibly yellow in color” in each case.
